How the values were obtained:
Assay in all cases: relative viability (nuclei count vs DMSO), 5 days (fraction); higher = more cells survive
201T = test system: 201T
Method in brief: (§1)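 The day after seeding in 1536-well plates, lung cancer cell lines were treated by pin tool with a single drug, or with a fixed anchor-drug dose together with five library-drug doses (not always all listed) in √10 steps. After 5 days, a combined fix-and-stain solution (final 0.05% Triton X-100, 1% formaldehyde, 1 ug/ml Hoechst) was added. Nuclei counted on 4× images gave relative viability as treated counts over vehicle counts, reported as the median of duplicate plates.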

A-427 = test system: A-427
Method in brief: as §1

COR-L 105 = test system: COR-L 105
Method in brief: as §1

COR-L23 = test system: COR-L23
Method in brief: as §1

EKVX = test system: EKVX
Method in brief: as §1

HARA = test system: HARA
Method in brief: as §1

HCC-15 = test system: HCC-15
Method in brief: as §1

HCC-44 = test system: HCC-44
Method in brief: as §1

HCC-827 = test system: HCC-827
Method in brief: as §1

LCLC-103H = test system: LCLC-103H
Method in brief: as §1

LK-2 = test system: LK-2
Method in brief: as §1

NCI-H1437 = test system: NCI-H1437
Method in brief: as §1

NCI-H1666 = test system: NCI-H1666
Method in brief: as §1

NCI-H1792 = test system: NCI-H1792
Method in brief: as §1

NCI-H1975 = test system: NCI-H1975
Method in brief: as §1

NCI-H23 = test system: NCI-H23
Method in brief: as §1

NCI-H441 = test system: NCI-H441
Method in brief: as §1

NCI-H520 = test system: NCI-H520
Method in brief: as §1

NCI-H522 = test system: NCI-H522
Method in brief: as §1

NCI-H650 = test system: NCI-H650
Method in brief: as §1

NCI-H838 = test system: NCI-H838
Method in brief: as §1

SK-MES-1 = test system: SK-MES-1
Method in brief: as §1

SW 900 = test system: SW 900
Method in brief: as §1

Compound `COc1cc(N2CCC(C(N)=O)CC2)ccc1Nc1nc(N)c(Cl)c(Nc2ccccc2S(=O)(=O)C(C)C)n1` [HG-5-88-01] + CC(=O)c1c(C)c2cnc(Nc3ccc(N4CCNCC4)cn3)nc2n(C2CCCC2)c1=O [Palbociclib] (partner 0.5 µM) has a relative viability (201T; first compound 0.04 µM) of 0.368, a relative viability (201T; first compound 0.1265 µM) of 0.343 and a relative viability (201T; first compound 1.265 µM) of 0.347. It also gave a relative viability (201T; first compound 4 µM) of 0.36, a relative viability (A-427; first compound 0.04 µM) of 0.536 and a relative viability (A-427; first compound 0.1265 µM) of 0.541. The relative viability (A-427; first compound 0.4 µM) was 0.541, the relative viability (A-427; first compound 1.265 µM) was 0.517 and the relative viability (A-427; first compound 4 µM) was 0.463. It also gave a relative viability (COR-L 105; first compound 0.04 µM) of 0.398, a relative viability (COR-L 105; first compound 0.1265 µM) of 0.419 and a relative viability (COR-L 105; first compound 0.4 µM) of 0.459. It also gave a relative viability (COR-L 105; first compound 1.265 µM) of 0.403, a relative viability (COR-L 105; first compound 4 µM) of 0.394 and a relative viability (COR-L23; first compound 0.04 µM) of 0.383. For the same compound, the relative viability (COR-L23; first compound 0.1265 µM) was 0.225, the relative viability (COR-L23; first compound 0.4 µM) was 0.266 and the relative viability (COR-L23; first compound 1.265 µM) was 0.235. The relative viability (COR-L23; first compound 4 µM) was 0.26, the relative viability (EKVX; first compound 0.04 µM) was 0.507 and the relative viability (EKVX; first compound 0.1265 µM) was 0.425. It also gave a relative viability (EKVX; first compound 0.4 µM) of 0.389, a relative viability (EKVX; first compound 4 µM) of 0.293 and a relative viability (HARA; first compound 0.04 µM) of 0.234. It also gave a relative viability (HARA; first compound 0.1265 µM) of 0.177, a relative viability (HARA; first compound 0.4 µM) of 0.2 and a relative viability (HARA; first compound 1.265 µM) of 0.218. It also gave a relative viability (HARA; first compound 4 µM) of 0.253, a relative viability (HCC-15; first compound 0.04 µM) of 0.772 and a relative viability (HCC-15; first compound 0.1265 µM) of 0.792. It also gave a relative viability (HCC-15; first compound 0.4 µM) of 0.643, a relative viability (HCC-15; first compound 1.265 µM) of 0.724 and a relative viability (HCC-15; first compound 4 µM) of 0.432. It also gave a relative viability (HCC-44; first compound 0.04 µM) of 0.983, a relative viability (HCC-44; first compound 0.1265 µM) of 0.957 and a relative viability (HCC-44; first compound 0.4 µM) of 0.864. For the same compound, the relative viability (HCC-44; first compound 1.265 µM) was 0.954, the relative viability (HCC-44; first compound 4 µM) was 0.943 and the relative viability (HCC-827; first compound 0.04 µM) was 0.583. It also gave a relative viability (HCC-827; first compound 0.1265 µM) of 0.459, a relative viability (HCC-827; first compound 0.4 µM) of 0.425 and a relative viability (HCC-827; first compound 1.265 µM) of 0.197. The relative viability (HCC-827; first compound 4 µM) was 0.33, the relative viability (LCLC-103H; first compound 0.04 µM) was 0.48 and the relative viability (LCLC-103H; first compound 0.1265 µM) was 0.48. It also gave a relative viability (LCLC-103H; first compound 0.4 µM) of 0.443, a relative viability (LCLC-103H; first compound 1.265 µM) of 0.504 and a relative viability (LCLC-103H; first compound 4 µM) of 0.445. The relative viability (LK-2; first compound 0.04 µM) was 0.772, the relative viability (LK-2; first compound 0.1265 µM) was 0.582 and the relative viability (LK-2; first compound 0.4 µM) was 0.71. For the same compound, the relative viability (LK-2; first compound 4 µM) was 0.519, the relative viability (NCI-H1437; first compound 0.04 µM) was 0.372 and the relative viability (NCI-H1437; first compound 0.1265 µM) was 0.299. It also gave a relative viability (NCI-H1437; first compound 0.4 µM) of 0.271, a relative viability (NCI-H1437; first compound 1.265 µM) of 0.28 and a relative viability (NCI-H1437; first compound 4 µM) of 0.243. The relative viability (NCI-H1666; first compound 0.04 µM) was 0.636, the relative viability (NCI-H1666; first compound 0.1265 µM) was 0.663 and the relative viability (NCI-H1666; first compound 0.4 µM) was 0.623. It also gave a relative viability (NCI-H1666; first compound 1.265 µM) of 0.661, a relative viability (NCI-H1666; first compound 4 µM) of 0.623 and a relative viability (NCI-H1792; first compound 0.04 µM) of 0.74. It also gave a relative viability (NCI-H1792; first compound 0.1265 µM) of 0.675, a relative viability (NCI-H1792; first compound 0.4 µM) of 0.623 and a relative viability (NCI-H1792; first compound 4 µM) of 0.614. For the same compound, the relative viability (NCI-H1975; first compound 0.04 µM) was 0.597, the relative viability (NCI-H1975; first compound 0.1265 µM) was 0.643 and the relative viability (NCI-H1975; first compound 0.4 µM) was 0.464. For the same compound, the relative viability (NCI-H1975; first compound 1.265 µM) was 0.538, the relative viability (NCI-H1975; first compound 4 µM) was 0.425 and the relative viability (NCI-H23; first compound 0.04 µM) was 0.507. For the same compound, the relative viability (NCI-H23; first compound 0.1265 µM) was 0.549, the relative viability (NCI-H23; first compound 0.4 µM) was 0.545 and the relative viability (NCI-H23; first compound 1.265 µM) was 0.378. For the same compound, the relative viability (NCI-H23; first compound 4 µM) was 0.263, the relative viability (NCI-H441; first compound 0.04 µM) was 0.209 and the relative viability (NCI-H441; first compound 0.1265 µM) was 0.202. The relative viability (NCI-H441; first compound 0.4 µM) was 0.146, the relative viability (NCI-H441; first compound 1.265 µM) was 0.152 and the relative viability (NCI-H441; first compound 4 µM) was 0.172. The relative viability (NCI-H520; first compound 0.04 µM) was 0.206, the relative viability (NCI-H520; first compound 0.1265 µM) was 0.216 and the relative viability (NCI-H520; first compound 0.4 µM) was 0.186. For the same compound, the relative viability (NCI-H520; first compound 1.265 µM) was 0.247, the relative viability (NCI-H520; first compound 4 µM) was 0.232 and the relative viability (NCI-H522; first compound 0.04 µM) was 1.06. For the same compound, the relative viability (NCI-H522; first compound 0.1265 µM) was 1.03, the relative viability (NCI-H522; first compound 0.4 µM) was 1.01 and the relative viability (NCI-H522; first compound 1.265 µM) was 0.829. For the same compound, the relative viability (NCI-H522; first compound 4 µM) was 0.851, the relative viability (NCI-H650; first compound 0.04 µM) was 0.398 and the relative viability (NCI-H650; first compound 0.1265 µM) was 0.341. It also gave a relative viability (NCI-H650; first compound 0.4 µM) of 0.338, a relative viability (NCI-H650; first compound 1.265 µM) of 0.303 and a relative viability (NCI-H650; first compound 4 µM) of 0.296. For the same compound, the relative viability (NCI-H838; first compound 0.04 µM) was 0.189, the relative viability (NCI-H838; first compound 0.1265 µM) was 0.207 and the relative viability (NCI-H838; first compound 0.4 µM) was 0.173. For the same compound, the relative viability (NCI-H838; first compound 1.265 µM) was 0.177, the relative viability (NCI-H838; first compound 4 µM) was 0.168 and the relative viability (SK-MES-1; first compound 0.04 µM) was 0.319. For the same compound, the relative viability (SK-MES-1; first compound 0.1265 µM) was 0.273, the relative viability (SK-MES-1; first compound 0.4 µM) was 0.27 and the relative viability (SK-MES-1; first compound 1.265 µM) was 0.304. For the same compound, the relative viability (SK-MES-1; first compound 4 µM) was 0.247, the relative viability (SW 900; first compound 0.04 µM) was 0.54 and the relative viability (SW 900; first compound 0.1265 µM) was 0.584. For the same compound, the relative viability (SW 900; first compound 0.4 µM) was 0.473, the relative viability (SW 900; first compound 1.265 µM) was 0.509 and the relative viability (SW 900; first compound 4 µM) was 0.567.
